Consider 13 compounds from patent publication US11905306B2 (priority 2021, dated 2024).

In one series the test system is Toronto 2 SARS CoV-1. Description: organism not typed. It is filed as cell-based. The following applies: Vero C1008, 72 h, read-out: SARS-1 EC50 (μM) VeroE6.
The next series deals with USA_WA1/2020 SARS CoV-2. Description: microbe, parasite or virus in culture. It is filed as cell-based. The following applies: Severe acute respiratory syndrome coronavirus 2, Vero C1008, 72 h, read-out: SARS-2 EC50 (μM) VeroE6.
The nature of another series: in vitro. The conditions noted are these: African green monkey.

For `COc1cc(C#Cc2ccccn2)cc(NC(=O)c2ccc3c(c2)CCCC(=O)N3)c1` [Compound 51, N-(3-Methoxy-5-(pyridin-2-ylethynyl)phenyl)-2-oxo-2,3,4,5-tetrahydro-1H-benzo[b]azepine-7-carboxamide], the EC50 (usually the concentration at which the effect is half-maximal) in the series on Toronto 2 SARS CoV-1 amounted to 0.51 µM; in the series on USA_WA1/2020 SARS CoV-2, 0.52 µM. In addition, the CC50 in the series “in vitro” turned out to be 12.2 µM.
Take `Nc1cc(C#Cc2ccccn2)cc(NC(=O)c2ccc(N3CCCCC3=O)cc2)c1` [Compound 52, N-(3-Amino-5-(pyridin-2-ylethynyl)phenyl)-4-(2-oxopiperidin-1-yl)benzamide]: the EC50 in the series with Toronto 2 SARS CoV-1 and in the series on USA_WA1/2020 SARS CoV-2 was 26 µM in each case. Moreover, in the series “in vitro”, the CC50 was more than 30 µM.
Take `O=C(Nc1cc(C#Cc2ccccn2)cc(OCC2CC2)c1)c1ccc(N2CCCCC2=O)cc1` [Compound 53, N-(3-(Cyclopropylmethoxy)-5-(pyridin-2-ylethynyl)phenyl)-4-(2-oxopiperidin-1-yl)benzamide]: the EC50 came out at 0.062 µM with Toronto 2 SARS CoV-1 and 0.18 µM in the series on USA_WA1/2020 SARS CoV-2. Besides, in “in vitro”, the CC50 was more than 30 µM.
For `CC(=O)Nc1ccc(NC(=O)c2cccc(C#Cc3ccccn3)c2)cc1` [Compound 55, N-(4-acetamidophenyl)-3-(pyridin-2-ylethynyl)benzamide], the EC50 came out at 2.82 µM in the series with Toronto 2 SARS CoV-1 and 4.18 µM with USA_WA1/2020 SARS CoV-2. The CC50 in “in vitro” was more than 30 µM.
Take `CCN(C(C)=O)c1ccc(NC(=O)c2cccc(C#Cc3ccccn3)c2)cc1` [Compound 56, N-(4-(N-ethylacetamido)phenyl)-3-(pyridin-2-ylethynyl)benzamide]: the EC50 in the series on Toronto 2 SARS CoV-1 was found to be 1.11 µM; in the series on USA_WA1/2020 SARS CoV-2 it was 1.58 µM. Besides, in the series “in vitro”, the CC50 was more than 30 µM.
On to `O=C(Nc1ccc(N2CCC2=O)cc1)c1cccc(C#Cc2ccccn2)c1` [Compound 57, N-(4-(2-oxoazetidin-1-yl)phenyl)-3-(pyridin-2-ylethynyl)benzamide], for which the figures for the EC50 in the series on Toronto 2 SARS CoV-1 and in the series with USA_WA1/2020 SARS CoV-2 were 1.74 µM and 4.01 µM, respectively. For the same compound, the CC50 in the series “in vitro” is more than 30 µM.
Consider `O=C(Nc1ccc(NC(=O)N2CCC2)cc1)c1cccc(C#Cc2ccccn2)c1` [Compound 60, N-(4-(3-(pyridin-2-ylethynyl)benzamido)phenyl)azetidine-1-carboxamide], for which the results for the EC50 in the series on Toronto 2 SARS CoV-1 and with USA_WA1/2020 SARS CoV-2 were 3.93 µM and 7.75 µM, respectively. This compound displayed a CC50 in “in vitro” of more than 30 µM.
On to `CC1(NC(=O)c2ccc(NC(=O)c3cccc(C#Cc4ccccn4)c3)cc2)CC1` [Compound 61, N-(4-((1-methylcyclopropyl)carbamoyl)phenyl)-3-(pyridin-2-ylethynyl)benzamide], for which the EC50 in the series with Toronto 2 SARS CoV-1 is more than 30 µM; in the series with USA_WA1/2020 SARS CoV-2 it was 0.71 µM. This compound also registered a CC50 in “in vitro” of more than 30 µM.
Turning to `O=C(Nc1ccc(C(=O)NC2CCCC2)cc1)c1cccc(C#Cc2ccccn2)c1` [Compound 62, N-(4-(cyclopentylcarbamoyl)phenyl)-3-(pyridin-2-ylethynyl)benzamide], the EC50 with Toronto 2 SARS CoV-1 is more than 30 µM; in the series with USA_WA1/2020 SARS CoV-2, 0.48 µM. The compound also gave a CC50 in the series “in vitro” of more than 30 µM.
Regarding `COC(=O)c1ccc(NC(=O)c2cccc(C#Cc3ccccn3)c2)cc1` [Compound 63, Methyl 4-(3-(pyridin-2-ylethynyl)benzamido)benzoate], the EC50 in the series on Toronto 2 SARS CoV-1 amounted to 0.43 µM; with USA_WA1/2020 SARS CoV-2 it was 0.55 µM. In the series “in vitro”, this compound displayed a CC50 of more than 30 µM.
For `COC(=O)c1cccc(NC(=O)c2cccc(C#Cc3ccccn3)c2)c1` [Compound 64, Methyl 3-(3-(pyridin-2-ylethynyl)benzamido)benzoate], the EC50 in the series with Toronto 2 SARS CoV-1 is 4.19 µM; in the series with USA_WA1/2020 SARS CoV-2, more than 30 µM. In “in vitro”, this compound displayed a CC50 of 21.7 µM.
For `CC(C)(C)c1ccc(NC(=O)c2cccc(C#Cc3ccccn3)c2)cc1` [Compound 67, N-(4-(tert-butyl)phenyl)-3-(pyridin-2-ylethynyl)benzamide], the EC50 was determined as 3.51 µM in the series on Toronto 2 SARS CoV-1 and 4.25 µM in the series with USA_WA1/2020 SARS CoV-2. Also, in “in vitro”, the CC50 is more than 30 µM.
As for `O=C(Nc1ccc(C(O)(C(F)(F)F)C(F)(F)F)cc1)c1cccc(C#Cc2ccccn2)c1` [Compound 68, N-(4-(1,1,1,3,3,3-hexafluoro-2-hydroxypropan-2-yl)phenyl)-3-(pyridin-2-ylethynyl)benzamide], the EC50 stood at 0.52 µM in the series with Toronto 2 SARS CoV-1 and 27.7 µM in the series with USA_WA1/2020 SARS CoV-2. Moreover, in the series “in vitro”, the CC50 turned out to be 9.72 µM.
